Data taken from patent US12121530B2, “Composition and methods for treating articulating joint disorders with nucleoside reverse transcriptase inhibitors” (RHODE ISLAND HOSPITAL, priority 2018, dated 2024).

Columns and labels:
HIV patients = assay: summary data of NRTI on OA in HIV patients; type: in vivo, human; conditions: for strict OA (ICD-9-CM 715) / expanded OA (ICD-9-CM 715, 716 or 719): HIV patients; for strict OA (ICD-9-CM 715): older than 50, dosage dependent, both male and female
Excerpt: Medical provider diagnoses of ICD-9-CM 715 [osteoarthrosis and allied disorders] include the following definitions: 1) strict=ICD-9-CM 715; 2) expanded=ICD-9-CM 715, 716 [other and unspecified arthropathies], OR 719 [other and unspecified disorders of joint]); and 3) probable=strict OR expanded+respondent-reported prior diagnosis of OA or other arthritis excluding rheumatoid arthritis (RA).

Line-1 = assay: siRNA against Line-1 in mouse primary chondrocytes, RT-qPCR; type: cell-based; conditions: for Line-1 expression: siRNA screening, versus scramble siRNA
Protocol: Cells were seeded onto desired size plates to reach 70-90% confluence and transfected with miR-365 mimic or miRNA mimic negative control or miR-365 inhibitor or inhibitor negative control (Dharmacon®, Lafayette, Colo., USA). Lipofectamine 3000 (Invitrogen®, Waltham, Mass., USA) was used as transfection reagents. Medium is changed 24 hrs after transfection. 48 hrs post transfection, cells were lysated in either QIAzol for RNA purification and real-time PCR analysis or ice-cold lysis buffer containing protease inhibitor and phosphatase inhibitor for western blot analysis. MiR-365 mimic, miRNA mimic negative control, miR-365 inhibitor and inhibitor negative control were typically used at a final concentration of 25 nM unless otherwise stated.
Both miRNA and mRNA were extracted using miRNeasy Mini Kit (Qiagen®, Germantown, Md., USA) and reversely transcribed using miScriptIIRT Kit (Qiagen®, Germantown, Md., USA) according to manufacturer's instruction. qPCR was performed using SYBR Green PCR master mix (Qiagen®, Germantown, Md., USA) on a Bio-Rad CFX96 real-time PCR detection system (Bio-Rad®, Hercules, Calif., USA). Amplification conditions are as follows: 95° C. for 10 min, 40 cycles of 95° C. for 10″, 55° C. for 30″, and 72° C. for 30″. 18S ribosomal or GAPDH RNA was used as an internal control gene to normalize the mRNAs level. The ubiquitously expressed snRNA U6 was used as an endogenous control for miRNAs level. Primers were synthesized by Integrated DNA Technologies (http://www.idtdna.com). The primers for miR-365 were purchased from Qiagen. Fold changes of mRNA and miRNAs were calculated by the 2^^(ΔΔCt) method and normalized to 18S/GAPDH or U6 snRNA, respectively.

[1] = mouse PC transfected with miR-365 mimic

Nc1nc(NC2CC2)c2ncn([C@H]3C=C[C@@H](CO)C3)c2n1 [ABC, abacavir]
strict OA (ICD-9-CM 715) (HIV patients): inhibiting

Cc1cn([C@H]2C=C[C@@H](CO)O2)c(=O)[nH]c1=O [D4T, 2′,3′-didehydro-2′,3′-dideoxythymidine]
expanded OA (ICD-9-CM 715, 716 or 719) (HIV patients): inhibiting
strict OA (ICD-9-CM 715) (HIV patients): inhibiting
extent of inhibition of strict OA and expanded OA (HIV patients; among NRTIs): highest extent of inhibition

O=c1nc[nH]c2c1ncn2[C@H]1CC[C@@H](CO)O1 [DDL, 2′,3′-dideoxyinosine]
expanded OA (ICD-9-CM 715, 716 or 719) (HIV patients): inhibiting
strict OA (ICD-9-CM 715) (HIV patients): inhibiting
toxicity (HIV patients; group of less than 40 years old): No toxicity

Cc1cn([C@H]2C[C@H](N=[N+]=[N-])[C@@H](CO)O2)c(=O)[nH]c1=O [ZDV, Zidovudine]
expanded OA (ICD-9-CM 715, 716 or 719) (HIV patients): partially inhibiting
strict OA (ICD-9-CM 715) (HIV patients): inhibiting

siLine-1C: siRNA against Line-1, AAGCCACTATTACTCTGATAC (SEQ ID NO: 95) (AAGCCACTATTACTCTGATAC; listed as DNA, chemistry not given here)
Line-1 expression (Line-1): significantly suppressed

siLine-1D: siRNA against Line-1, AAGGTCAAATCTAAGTGGATC (SEQ ID NO: 96) (AAGGTCAAATCTAAGTGGATC; listed as DNA, chemistry not given here)
miR-365-elicited gene expression changes (L1, Adamts5, Mmp3, Ihh, Col2a1, Acan) (Line-1; co-transfected with miR-365 (FIG. 1D-1I)): abolished
miR-365 led induction of Ihh (Line-1; [1]): successfully rescued
miR-365 led induction of Line-1 (Line-1; [1]): successfully rescued
Line-1 expression (Line-1): significantly suppressed

siLine-1E: siRNA against Line-1, AAGTTTCTGCAAGGCAAAAGA (SEQ ID NO: 97) (AAGTTTCTGCAAGGCAAAAGA; listed as DNA, chemistry not given here)
Line-1 expression (Line-1): significantly suppressed
